≈ marks a conversion by molar mass, not a printed value. Like-named read-outs stand apart in the source and are kept apart here.
Columns and labels:
Test in all cases: MIC on Iso-Sensitest agar, serial dilution
Assay type in all cases: cell-based
[1] = test system: Pseudomonas aeruginosa
Protocol: (§1) The minimum inhibitory concentrations (MICs) were determined on Iso-Sensitest agar (Oxoid) using serial dilution methods. For each test substance a series of agar plates was prepared which contained concentrations of the active substance which decreased as the dilution factor was doubled. The agar plates were inoculated by means of a multipoint inoculator (Denley). The inocula used were overnight cultures of the pathogens which had previously been diluted to such an extent that each inoculation point contained approx. 10^4 colony-forming units. The inoculated agar plates were incubated at 37° C., and the growth of the germs was read off after approx. 20 hours. The MIC value (μg/ml) indicates the lowest concentration of active compound at which no growth could be observed with the naked eye.

[2] = test system: Staphylococcus aureus; conditions: 37° C., approx. 20 hours
Protocol: as §1

[3] = test system: E. coli; conditions: Escherichia coli, 20 h, 37° C., approx. 20 hours
Protocol: as §1, with “hours.” for “hours. The MIC value (μg/ml) indicates the lowest concentration of active compound at which no growth could be observed with the naked eye.”

[4] = test system: Klebsiella sp.
Protocol: as §1, with “hours.” for “hours. The MIC value (μg/ml) indicates the lowest concentration of active compound at which no growth could be observed with the naked eye.”

[5] = test system: Morganella morg.
Protocol: as §1, with “hours.” for “hours. The MIC value (μg/ml) indicates the lowest concentration of active compound at which no growth could be observed with the naked eye.”

[6] = test system: Enterococcus faecalis
Protocol: as §1, with “hours.” for “hours. The MIC value (μg/ml) indicates the lowest concentration of active compound at which no growth could be observed with the naked eye.”

[7] = test system: Providencia spp.
Protocol: as §1, with “hours.” for “hours. The MIC value (μg/ml) indicates the lowest concentration of active compound at which no growth could be observed with the naked eye.”

[8] = Staphylococcus aureus strain 133
[9] = Staphylococcus aureus strain 1756, read-out: MIC
[10] = Klebsiella sp. strain 8085, 37° C., approx. 20 hours, read-out: MIC
[11] = Morganella morg. strain 932, 37° C., approx. 20 hours, read-out: MIC
[12] = Staphylococcus aureus, 20 h, Staphylococcus aureus strain 133
[13] = Enterococcus faecalis, 20 h, Enterococcus faecalis strain 9790, 37° C., approx. 20 hours
[14] = Pseudomonas aeruginosa strain Walter, 37° C., approx. 20 hours, read-out: MIC
[15] = Enterococcus faecalis, 20 h, Enterococcus faecalis strain 9790, 37° C., approx. 20 hours, read-out: MIC
[16] = Enterococcus faecalis, 20 h, Enterococcus faecalis strain 27101, 37° C., approx. 20 hours, read-out: MIC
[17] = Providencia spp. strain 12012, 37° C., approx. 20 hours, read-out: MIC
[18] = Enterococcus faecalis, 20 h, Enterococcus faecalis strain 27101, 37° C., approx. 20 hours

Compound | MIC ([1]; Pseudomonas aeruginosa, 20 h) [µg/mL] | MIC [2, 8] [µg/mL] | MIC [2, 9] [µg/mL] | MIC ([3]; E. coli strain 455/7) [µg/mL] | MIC ([3]; E. coli strain Neumann) [µg/mL] | MIC [4, 10] [µg/mL] | MIC [5, 11] [µg/mL] | MIC [2, 12] [µg/mL] | MIC ([2]; Staphylococcus aureus, 20 h, Staphylococcus aureus strain 1756) [µg/mL] | MIC ([4]; Klebsiella, 20 h) [µg/mL] | MIC ([6]; Enterococcus faecalis, 20 h) [µg/mL] | MIC [6, 13] [µg/mL] | MIC ([7]; Providencia, 20 h) [µg/mL] | MIC ([5]; Morganella, 20 h) [µg/mL] | MIC [1, 14] [µg/mL] | MIC ([6]; Enterococcus faecalis strain 27101, 37° C., approx. 20 hours, read-out: MIC) [µg/mL] | MIC [6, 15] [µg/mL] | MIC [6, 16] [µg/mL] | MIC [7, 17] [µg/mL] | MIC [6, 18] [µg/mL]
CN1CCC2=C(C1)CN(c1c(F)cc3c(=O)c(C(=O)O)cn(C4CC4)c3c1F)C2.Cl [Example 7B, 1-cyclopropyl-6,8-difluoro-1,4-dihydro-7-(5-methyl-2,3,4,5,6,7-hexahydro-1H-pyrrolo[3,4-c]-pyridin-2-yl)-4-oxo-3-quinolinecarboxylic acid hydrochloride] | 1 | 0.06 | 0.06 | 2 | 0.02 | 0.06 | 0.03 |  |  |  |  |  |  |  |  |  |  |  |  | 
O=C(O)c1cn(C2CC2)c2nc(N3Cc4cccnc4C3)c(F)cc2c1=O [Example 3] | 2 (≈ 5.46 µM) |  |  | 128 (≈ 349 µM) |  |  |  | 0.25 (≈ 0.682 µM) | 0.25 (≈ 0.682 µM) | 0.5 (≈ 1.36 µM) | 0.5 (≈ 1.36 µM) | 0.5 (≈ 1.36 µM) | 0.5 (≈ 1.36 µM) | 0.25 (≈ 0.682 µM) |  |  |  |  |  | 
Cl.O=C(O)c1cn(C2CC2)c2c(F)c(N3Cc4cccnc4C3)c(F)cc2c1=O [Example 1B, 1-cyclopropyl-7-(5,7-dihydro-6H-pyrrolo[3,4-b]pyridin-6-yl)-6,8-difluoro-1,4-dihydro-4-oxo-3-quinolinecarboxylic acid hydrochloride] |  | 0.02 | 0.02 | 8 |  |  |  |  |  | 0.25 |  |  | 0.25 |  | 4 | 0.01 | 0.06 |  |  | 
Cc1c(F)c(N2CC3=C(CN(C)CC3)C2)cc2c1c(=O)c(C(=O)O)cn2-c1ccc(F)cc1F [Example 9, 1-(2,4-difluorophenyl)-6-fluoro-1,4-dihydro-5-methyl-7-(5-methyl-2,3,4,5,6,7-hexahydro-1H-pyrrolo[3,4-c]-pyridin-2-yl)-4-oxo-3-quinolinecarboxylic acid] |  | 0.06 (≈ 0.128 µM) | 0.06 (≈ 0.128 µM) | 128 (≈ 273 µM) | 0.25 (≈ 0.533 µM) |  |  |  |  | 0.5 (≈ 1.07 µM) | 0.5 (≈ 1.07 µM) | 0.5 (≈ 1.07 µM) | 0.5 (≈ 1.07 µM) | 0.5 (≈ 1.07 µM) | 128 (≈ 273 µM) |  |  |  |  | 
O=C(O)c1cn(C2CC2)c2cc(N3Cc4ccncc4C3)c(F)cc2c1=O [Example 4, 1-cyclopropyl-7-(2,3-dihydro-1H-pyrrolo[3,4-c]pyridin-2-yl)-6-fluoro-1,4-dihydro-4-oxo-3-quinolinecarboxylic acid] |  | 0.06 (≈ 0.164 µM) | 0.06 (≈ 0.164 µM) | 128 (≈ 350 µM) | 0.06 (≈ 0.164 µM) | 0.25 (≈ 0.684 µM) | 0.5 (≈ 1.37 µM) |  |  |  |  |  |  |  | 4 (≈ 10.9 µM) |  | 0.25 (≈ 0.684 µM) | 0.25 (≈ 0.684 µM) | 0.5 (≈ 1.37 µM) | 
CN1CCC2=C(C1)CN(c1c(F)cc3c(=O)c(C(=O)O)cn(C4CC4)c3c1Cl)C2 [Example 8, 8-chloro-1-cyclopropyl-6-fluoro-1,4-dihydro-7-(5-methyl-2,3,4,5,6,7-hexahydro-1H-pyrrolo[3,4-c]pyridin-2-yl)-4-oxo-3-quinolinecarboxylic acid] | 0.5 (≈ 1.2 µM) | 0.03 (≈ 0.0718 µM) | 0.03 (≈ 0.0718 µM) | 1 (≈ 2.39 µM) | 0.03 (≈ 0.0718 µM) | 0.06 (≈ 0.144 µM) | 0.06 (≈ 0.144 µM) |  |  |  |  |  |  |  |  |  | 0.06 (≈ 0.144 µM) | 0.06 (≈ 0.144 µM) | 0.13 (≈ 0.311 µM) | 
O=C(O)c1cn(C2CC2)c2c(F)c(N3Cc4ccncc4C3)c(F)cc2c1=O [Example 2, 1-cyclopropyl-7-(2,3-dihydro-1H-pyrrolo[3,4-c]pyridin-2-yl)-6,8-difluoro-1,4-dihydro-4-oxo-3-quinolinecarboxylic acid] | 1 (≈ 2.61 µM) |  | 0.06 (≈ 0.157 µM) | 8 (≈ 20.9 µM) | 0.06 (≈ 0.157 µM) |  |  | 0.25 (≈ 0.652 µM) |  |  |  |  | 0.25 (≈ 0.652 µM) |  |  |  |  |  |  | 0.25 (≈ 0.652 µM)
Nc1cccc2c1CN(c1c(F)cc3c(=O)c(C(=O)O)cn(C4CC4)c3c1F)C2 [Ref., 7-(4-amino-1,3-dihydro-isoindol-2-yl)-1-cyclopropyl-6,8-difluoro-1,4-dihydro-4-oxo-3-quinolinecarboxylic acid, reference compound] |  | 0.03 (≈ 0.0755 µM) | 0.03 (≈ 0.0755 µM) | 128 (≈ 322 µM) | 0.5 (≈ 1.26 µM) | 4 (≈ 10.1 µM) |  |  |  |  |  | 1 (≈ 2.52 µM) | 1 (≈ 2.52 µM) | 1 (≈ 2.52 µM) | 128 (≈ 322 µM) |  |  |  |  | 0.5 (≈ 1.26 µM)
O=C(O)c1cn(C2CC2)c2cc(N3Cc4cccnc4C3)c(F)cc2c1=O [Example 5, 1-cyclopropyl-7-(5,7-dihydro-6H-pyrrolo[3,4-b]-pyridin-6-yl)-6-fluoro-1,4-dihydro-4-oxo-3-quinolinecarboxylic acid] |  | 0.13 (≈ 0.356 µM) | 0.13 (≈ 0.356 µM) | 128 (≈ 350 µM) | 0.13 (≈ 0.356 µM) |  | 0.13 (≈ 0.356 µM) |  |  | 1 (≈ 2.74 µM) |  |  |  |  | 128 (≈ 350 µM) |  | 0.25 (≈ 0.684 µM) | 0.25 (≈ 0.684 µM) | 0.5 (≈ 1.37 µM) | 
O=C(O)c1cn(C2CC2)c2nc(N3Cc4ccncc4C3)c(F)cc2c1=O [Example 6, 1-cyclopropyl-7-(2,3-dihydro-1H-pyrrolo[3,4-c]pyridin-2-yl]-6-fluoro-1,4-dihydro-4-oxo-1,8-naphthyridine-3-carboxylic acid] |  | 0.25 (≈ 0.682 µM) | 0.25 (≈ 0.682 µM) | 128 (≈ 349 µM) | 0.13 (≈ 0.355 µM) |  | 0.25 (≈ 0.682 µM) |  |  | 0.5 (≈ 1.36 µM) | 0.5 (≈ 1.36 µM) | 0.5 (≈ 1.36 µM) |  |  | 16 (≈ 43.7 µM) |  |  |  | 1 (≈ 2.73 µM) | 
